One assay concerns HeLa. The experiment in a line: Proliferation assay (HeLa cell line).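 Further: crystal violet staining of cell number, scaled between a plate stained before dosing (0%) and cells left untreated (100%), compounds tested at 0.001-10 µM, IC50 via 4-parameter fit.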 As to conditions: Homo sapiens, 96 h, read-out: Biological Assay 2: Proliferation assay (HeLa cell line) median IC50.
In assay [1] the test system is HeLa human cervical tumor cells. The experiment in a line: Proliferation assay (HeLa+Paclitaxel).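 Further: compounds at 0.001-10 µM added 4 h after paclitaxel, 92 h exposure, absorbance normalized to zero-point plate (0%) and untreated cells (100%), IC50 from 4-parameter fit.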 The note with it: read-out: Biological Assay 3: HeLa + Paclitaxel IC50, 3 nM paclitaxel, crystal violet.
For assay [2], the target named is T1, catalytic domain of human Bub1 (amino acids 704-1085) (Homo sapiens, UniProt O43683).
T1 construct: catalytic domain of human Bub1 (amino acids 704-1085); His6 (N); made in house; host or cells: Hi5 insect cells
T1 sequence (O43683 704-1085): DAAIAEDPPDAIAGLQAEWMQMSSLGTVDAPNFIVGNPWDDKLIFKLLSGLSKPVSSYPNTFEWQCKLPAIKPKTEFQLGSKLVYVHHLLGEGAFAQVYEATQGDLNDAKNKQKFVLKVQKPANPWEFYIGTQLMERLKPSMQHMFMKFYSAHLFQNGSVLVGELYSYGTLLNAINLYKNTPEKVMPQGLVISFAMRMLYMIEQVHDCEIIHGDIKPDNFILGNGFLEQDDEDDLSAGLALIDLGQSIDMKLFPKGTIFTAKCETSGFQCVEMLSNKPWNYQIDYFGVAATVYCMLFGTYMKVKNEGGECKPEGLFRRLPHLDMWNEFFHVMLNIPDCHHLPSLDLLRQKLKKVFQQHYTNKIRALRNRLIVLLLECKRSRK
The experiment in a line: Bub1 kinase assay (TR-FRET). The format is biochemical. In short, it runs like this: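 Compounds from 2 mM DMSO stocks, serially diluted 1:3.4, incubated with enzyme at 22° C for 60 min. Stopped with EDTA, then 1 h with streptavidin-XL665, anti-phosphoserine antibody and Eu-labelled anti-mouse IgG. Phosphorylated biotin-peptide read by TR-FRET; IC50 by 4-parameter logistic fit.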
On the technique in general: In TR-FRET formats the signal depends on donor and acceptor labels being close together.

Another assay deals with Bub1 (Homo sapiens, UniProt O43683). Kind of assay: Formation-Assay: phosphorylation status of histone 2A by inhibition of kinase activity of Bub1. Format: cell-based. As to conditions: Biological Assay 4.1: H2A Formation IC50, co-treatment with Nocodazole 1 μg/ml, 16 h. In short, it runs like this:
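Cells co-treated 16 h with Nocodazole (1 μg/ml) and compound (3 nM–10 μM), then fixed and immunostained for phospho-H2A, read by infrared imaging (800 nm) normalised to cell stain (700 nm). Nocodazole-only set as 100%, untreated cells as 0%.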

The mark [3] stands for this setting: 10 μM ATP, read-out: Biological Assay 1: Bub1 kinase assay median IC50.
Setting [4] is: Biological Assay 1: Bub1 kinase assay median IC50, 10 μM ATP.

Structures can show the parent of a compound that is named as a salt. Where two headings read alike, the source gives them in different places. A value given as a limit tells only on which side of the number the result lay.

Chain of Bub1 (O43683 whole entry): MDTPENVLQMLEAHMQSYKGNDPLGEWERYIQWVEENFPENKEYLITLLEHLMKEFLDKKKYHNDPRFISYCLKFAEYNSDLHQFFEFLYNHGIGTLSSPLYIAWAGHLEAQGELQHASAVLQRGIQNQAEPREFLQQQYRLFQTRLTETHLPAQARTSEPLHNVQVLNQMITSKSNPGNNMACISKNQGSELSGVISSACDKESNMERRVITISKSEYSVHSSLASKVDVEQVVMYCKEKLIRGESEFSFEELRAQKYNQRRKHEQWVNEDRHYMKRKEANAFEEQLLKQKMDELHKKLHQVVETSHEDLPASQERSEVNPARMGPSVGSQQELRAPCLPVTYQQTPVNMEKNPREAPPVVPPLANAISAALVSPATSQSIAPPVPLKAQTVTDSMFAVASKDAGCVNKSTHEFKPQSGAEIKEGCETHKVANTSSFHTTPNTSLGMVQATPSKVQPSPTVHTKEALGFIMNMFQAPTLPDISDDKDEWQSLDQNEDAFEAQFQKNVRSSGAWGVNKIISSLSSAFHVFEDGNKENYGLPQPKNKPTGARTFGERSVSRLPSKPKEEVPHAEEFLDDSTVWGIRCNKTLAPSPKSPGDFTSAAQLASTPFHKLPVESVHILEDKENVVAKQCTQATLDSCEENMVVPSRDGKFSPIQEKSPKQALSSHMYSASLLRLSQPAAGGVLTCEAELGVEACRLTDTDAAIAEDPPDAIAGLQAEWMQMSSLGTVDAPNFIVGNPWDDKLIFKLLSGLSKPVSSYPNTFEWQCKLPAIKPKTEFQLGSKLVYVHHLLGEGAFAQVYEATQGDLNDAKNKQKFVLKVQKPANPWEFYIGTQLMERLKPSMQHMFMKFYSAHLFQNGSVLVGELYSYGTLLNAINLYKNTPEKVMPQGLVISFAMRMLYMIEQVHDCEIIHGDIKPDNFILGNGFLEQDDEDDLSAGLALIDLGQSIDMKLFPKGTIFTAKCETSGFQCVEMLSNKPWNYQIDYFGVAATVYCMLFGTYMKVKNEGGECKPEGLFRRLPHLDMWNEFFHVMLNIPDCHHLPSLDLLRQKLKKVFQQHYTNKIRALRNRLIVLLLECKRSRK

Turning to `CCOc1cc(F)c(Cn2nc(-c3nc(CN4CCOCC4)cc(Nc4ccnc(S(C)(=O)=O)c4)n3)c3ccccc32)c(F)c1` [Example 2-12-33, 2-[1-(4-ethoxy-2,6-difluorobenzyl)-1H-indazol-3-yl]-N-[2-(methylsulfonyl)pyridin-4-yl]-6-(morpholin-4-ylmethyl)pyrimidin-4-amine], the IC50 in the assay with HeLa came out at 8300 nM; in assay [1] it was 400 nM; in assay [2] (setting [3]), 520 nM; on Bub1 it was 370 nM.

For the molecule `CCOc1cc(F)c(Cn2nc(-c3nc4c(c(Nc5ccncc5OC)n3)CCC4)c3ccccc32)c(F)c1` [Example 2-14-4, 2-[1-(4-ethoxy-2,6-difluorobenzyl)-1H-indazol-3-yl]-N-(3-methoxypyridin-4-yl)-6,7-dihydro-5H-cyclopenta[d]pyrimidin-4-amine], the IC50 in the assay with HeLa was 940 nM; in assay [1] it was 120 nM; in assay [2] (setting [3]), 2.9 nM; on Bub1, 13 nM.

As to `CCOc1cc(F)c(Cn2nc(-c3nc4c(c(Nc5ccncc5)n3)CNC4)c3ccccc32)c(F)c1` [Example 2-9-14, 2-[1-(4-ethoxy-2,6-difluorobenzyl)-1H-indazol-3-yl]-N-(pyridin-4-yl)-6,7-dihydro-5H-pyrrolo[3,4-d]pyrimidin-4-amine, salt with hydrochloric acid], the IC50 with HeLa amounted to 4300 nM; in assay [1], 170 nM; in assay [2] (setting [4]), 11 nM; on Bub1, 11 nM.

`CCOc1cc(F)c(Cn2nc(-c3nc(CN4CCOCC4)cc(Nc4ccncc4F)n3)c3ccccc32)c(F)c1` [Example 2-19-12, 2-[1-(4-ethoxy-2,6-difluorobenzyl)-1H-indazol-3-yl]-N-(3-fluoropyridin-4-yl)-6-(morpholin-4-ylmethyl)pyrimidin-4-amine]: the IC50 with HeLa stood at 4000 nM; in assay [1], 250 nM; in assay [2] (setting [3]) it was 11 nM; on Bub1, 63 nM.

Regarding `CCOc1cc(F)c(Cn2nc(-c3nc4c(c(Nc5ccncc5C)n3)CCCC4)c3ccccc32)c(F)c1` [Example 2-19-20, 2-[1-(4-ethoxy-2,6-difluorobenzyl)-1H-indazol-3-yl]-N-(3-methylpyridin-4-yl)-5,6,7,8-tetrahydroquinazolin-4-amine], the IC50 was determined as 5200 nM in the assay on HeLa, 120 nM in assay [1], 7 nM in assay [2] (setting [3]) and 49 nM at Bub1.

For the molecule `CCOc1cc(F)c(Cn2nc(-c3nc4c(c(Nc5ccncc5OC)n3)CC(C)(C)CC4)c3ccccc32)c(F)c1` [Example 2-12-67, 2-[1-(4-ethoxy-2,6-difluorobenzyl)-1H-indazol-3-yl]-N-(3-methoxypyridin-4-yl)-6,6-dimethyl-5,6,7,8-tetrahydroquinazolin-4-amine], the IC50 in the assay with HeLa was 4400 nM; in assay [1] it was 150 nM; in assay [2] (setting [3]), 66 nM; on Bub1, 22 nM.

Regarding `CCOc1cc(F)c(Cn2nc(-c3nc4c(c(Nc5cc(C)ncn5)n3)CCC4)c3ccccc32)c(F)c1` [Example 2-21-1, 2-[1-(4-ethoxy-2,6-difluorobenzyl)-1H-indazol-3-yl]-N-(6-methylpyrimidin-4-yl)-6,7-dihydro-5H-cyclopenta[d]pyrimidin-4-amine], the IC50 turned out to be 6000 nM in the assay on HeLa, 98 nM in assay [1], 25 nM in assay [2] (setting [3]) and 1900 nM at Bub1.

On to `C[S@@+]([O-])CCCc1cnc(-c2nn(Cc3c(F)cc(OCCO)cc3F)c3ccccc23)nc1Nc1ccncc1` [Example 2-4-3, 2-[3,5-difluoro-4-({3-[5-{3-[(R)-methylsulfinyl]propyl}-4-(pyridin-4-ylamino)pyrimidin-2-yl]-1H-indazol-1-yl}methyl)phenoxy]ethanol], for which the IC50 in the assay on HeLa was above 10000 nM; in assay [1], above 10000 nM; in assay [2] (setting [4]), 940 nM; on Bub1, 1000 nM.

For the molecule `CCOc1cc(F)c(Cn2nc(-c3nc4c(c(Nc5ccnc(C)c5)n3)CN(CC)CC4)c3ccccc32)c(F)c1` [Example 2-15-2, 2-[1-(4-ethoxy-2,6-difluorobenzyl)-1H-indazol-3-yl]-6-ethyl-N-(2-methylpyridin-4-yl)-5,6,7,8-tetrahydropyrido[4,3-d]pyrimidin-4-amine], the IC50 in the assay with HeLa is above 10000 nM; in assay [1], 45 nM; in assay [2] (setting [4]) it was 47 nM; at Bub1, 39 nM.

Consider `CCOc1cc(F)c(Cn2nc(-c3nc4c(c(Nc5ccnc(OC)c5)n3)CCC4)c3ccccc32)c(F)c1` [Example 2-19-7, 2-[1-(4-ethoxy-2,6-difluorobenzyl)-1H-indazol-3-yl]-N-(2-methoxypyridin-4-yl)-6,7-dihydro-5H-cyclopenta[d]pyrimidin-4-amine], for which the IC50 with HeLa was above 10000 nM; in assay [1], 540 nM; in assay [2] (setting [3]), 57 nM; on Bub1 it was 21 nM.

Regarding `CCOc1cc(F)c(Cn2nc(-c3nc(CN4CCOCC4)cc(Nc4ccnnc4)n3)c3ccccc32)c(F)c1` [Example 2-12-35, N-{2-[1-(4-ethoxy-2,6-difluorobenzyl)-1H-indazol-3-yl]-6-(morpholin-4-ylmethyl)pyrimidin-4-yl}pyridazin-4-amine], the IC50 in the assay on HeLa was determined as 10000 nM; in assay [1], 590 nM; in assay [2] (setting [3]), 17 nM; on Bub1, 14 nM.

Regarding `CCOc1cc(F)c(Cn2nc(-c3nc4c(c(Nc5ccnc(C(F)F)c5)n3)CCC4)c3ccccc32)c(F)c1` [Example 2-19-8, N-[2-(difluoromethyl)pyridin-4-yl]-2-[1-(4-ethoxy-2,6-difluorobenzyl)-1H-indazol-3-yl]-6,7-dihydro-5H-cyclopenta[d]pyrimidin-4-amine], the IC50 in the assay with HeLa is above 10000 nM; in assay [1], 440 nM; in assay [2] (setting [3]), 8.1 nM; at Bub1, 2500 nM.

For `CCOc1cc(F)c(Cn2nc(-c3nc(CN4CCOCC4)cc(Nc4ccnc(NC(=O)C5CC5)c4)n3)c3ccccc32)c(F)c1` [Example 2-19-11, N-[4-({2-[1-(4-ethoxy-2,6-difluorobenzyl)-1H-indazol-3-yl]-6-(morpholin-4-ylmethyl)pyrimidin-4-yl}amino)pyridin-2-yl]cyclopropanecarboxamide], the IC50 with HeLa turned out to be 1800 nM; in assay [1] it was 130 nM; in assay [2] (setting [3]) it was 9.1 nM; on Bub1, 180 nM.

For the molecule `CCOc1cc(F)c(Cn2nc(-c3nc4c(c(Nc5ccncn5)n3)CCC4)c3ccccc32)c(F)c1` [Example 2-14-6, 2-[1-(4-ethoxy-2,6-difluorobenzyl)-1H-indazol-3-yl]-N-(pyrimidin-4-yl)-6,7-dihydro-5H-cyclopenta[d]pyrimidin-4-amine], the IC50 was found to be 3600 nM with HeLa, 270 nM in assay [1], 37 nM in assay [2] (setting [3]) and 2.7 nM at Bub1.

With `CCOc1cc(F)c(Cn2nc(-c3nc(COC)cc(Nc4ccnc(C)c4)n3)c3ccccc32)c(F)c1` [Example 2-12-48, 2-[1-(4-ethoxy-2,6-difluorobenzyl)-1H-indazol-3-yl]-6-(methoxymethyl)-N-(2-methylpyridin-4-yl)pyrimidin-4-amine], the IC50 was 1200 nM in the assay on HeLa, 180 nM in assay [1], 21 nM in assay [2] (setting [4]) and 1100 nM on Bub1.

As to `CCOc1cc(F)c(Cn2nc(-c3nc(Nc4ccncc4)cc(C(C)C)n3)c3ccccc32)c(F)c1` [Example 2-12-3, 2-[1-(4-ethoxy-2,6-difluorobenzyl)-1H-indazol-3-yl]-6-(propan-2-yl)-N-(pyridin-4-yl)pyrimidin-4-amine], the IC50 is 4900 nM in the assay on HeLa, 1400 nM in assay [1], 17 nM in assay [2] (setting [4]) and 34 nM at Bub1.

As for `CCOc1cc(F)c(Cn2nc(-c3nc4c(c(Nc5ccnnc5)n3)CCC4)c3ccccc32)c(F)c1` [Example 2-14-5, 2-[1-(4-ethoxy-2,6-difluorobenzyl)-1H-indazol-3-yl]-N-(pyridazin-4-yl)-6,7-dihydro-5H-cyclopenta[d]pyrimidin-4-amine], the IC50 in the assay on HeLa turned out to be 3600 nM; in assay [1], 540 nM; in assay [2] (setting [3]) it was 16 nM; at Bub1, 2.7 nM.

Take `CCOc1cc(F)c(Cn2nc(-c3ncc(CCCOC)c(Nc4ccncc4C(N)=O)n3)c3ccccc32)c(F)c1` [Example 2-10-1, 4-({2-[1-(4-ethoxy-2,6-difluorobenzyl)-1H-indazol-3-yl]-5-(3-methoxypropyl)pyrimidin-4-yl}amino)nicotinamide]: the IC50 in the assay with HeLa is above 10000 nM; in assay [1] it was 1300 nM; in assay [2] (setting [4]), 11 nM; on Bub1, 3400 nM.

For the molecule `CCOc1cc(F)c(Cn2nc(-c3nc(COC)cc(Nc4ccnc(NC(C)=O)c4)n3)c3ccccc32)c(F)c1` [Example 2-12-20, N-[4-({2-[1-(4-ethoxy-2,6-difluorobenzyl)-1H-indazol-3-yl]-6-(methoxymethyl)pyr-imidin-4-yl}amino)pyridin-2-yl]acetamide], the IC50 was found to be 2800 nM with HeLa, 330 nM in assay [1], 5.3 nM in assay [2] (setting [4]) and 2.9 nM on Bub1.

These data come from patent US20170275270A1, “BENZYL SUBSTITUTED INDAZOLES” (Bayer Pharma Aktiengesellschaft, priority 2014, published 2017).
